Measurements reported in patent US9695155B2, “Herbicidal substituted pyrimidinyloxy benzene compounds” (E. I. DU PONT DE NEMOURS AND COMPANY, priority 2013, dated 2017).

What was measured:
giant foxtail [1] = test: Test A preemergence; format: in vivo, Setaria faberii
Outline: (§1)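 Visual 0–100 rating (100 = complete control) taken about 10 d post-treatment relative to untreated checks. Preemergence: directed soil spray on sown loam/sand pots. Postemergence: seedlings 2–10 cm, 1–2 leaf. Non-phytotoxic solvent formulation with surfactant.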

pigweed [2] = test: Test A preemergence; format: in vivo, Amaranthus retroflexus; details: for Pigweed plant response rating (0 to 100 scale): 125 g ai/ha
Outline: as §1

Italian ryegrass [3] = test: Test A postemergence; format: in vivo, Lolium multiflorum; details: for Ryegrass, Italian plant response rating: 125 g ai/ha
Outline: as §1

barnyardgrass [4] = test: Test A postemergence; format: in vivo, Echinochloa crus-galli; details: for Barnyardgrass plant response rating: 125 g ai/ha
Outline: as §1

barnyardgrass [5] = test: Test B flooded paddy test; format: in vivo, Echinochloa crus-galli; details: Flood, 250 g ai/ha; 0 to 100 scale where 0 is no effect and 100 is complete control
Outline: (§2)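 Scores from 0 (no effect) to 100 (complete control) are visual comparisons with controls, taken 13 to 15 days after compound was applied into floodwater 3 cm deep around 2-leaf plants.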

kochia [6] = test: Test A postemergence; format: in vivo, Kochia scoparia; details: for Kochia plant response rating: 125 g ai/ha
Outline: as §1

wheat = test: Test A postemergence; format: in vivo, Triticum aestivum; details: for Wheat plant response rating: 125 g ai/ha
Outline: as §1

giant foxtail [7] = test: Test A postemergence; format: in vivo, Setaria faberii; details: for Foxtail, Giant plant response rating: 125 g ai/ha
Outline: as §1

sedge, umbrella = test: Test B flooded paddy test; format: in vivo, Cyperus difformis; details: Flood, 250 g ai/ha; 0 to 100 scale where 0 is no effect and 100 is complete control
Outline: as §2

rice = test: Test B flooded paddy test; format: in vivo, Oryza sativa; details: Flood, 250 g ai/ha; 0 to 100 scale where 0 is no effect and 100 is complete control
Outline: as §2

kochia [8] = test: Test A preemergence; format: in vivo, Kochia scoparia; details: for Kochia plant response rating (0 to 100 scale): 125 g ai/ha
Outline: as §1

galium = test: Test A postemergence; format: in vivo, Galium aparine; details: for Galium plant response rating: 125 g ai/ha
Outline: as §1

corn = test: Test A postemergence; format: in vivo, Zea mays; details: for Corn plant response rating: 125 g ai/ha
Outline: as §1

blackgrass = test: Test A postemergence; format: in vivo, Alopecurus myosuroides; details: for Blackgrass plant response rating: 125 g ai/ha
Outline: as §1

Heteranthera limosa = test: Test B flooded paddy test; format: in vivo; details: Flood, 250 g ai/ha; 0 to 100 scale where 0 is no effect and 100 is complete control
Outline: as §2

barnyardgrass [9] = test: Test A preemergence; format: in vivo, Echinochloa crus-galli
Outline: as §1

ragweed [10] = test: Test A postemergence; format: in vivo, Ambrosia elatior; details: for Ragweed plant response rating: 125 g ai/ha
Outline: as §1

pigweed [11] = test: Test A postemergence; format: in vivo, Amaranthus retroflexus; details: for Pigweed plant response rating: 125 g ai/ha
Outline: as §1

Italian ryegrass [12] = test: Test A preemergence; format: in vivo, Lolium multiflorum; details: for Ryegrass, Italian plant response rating (0 to 100 scale): 125 g ai/ha
Outline: as §1

ragweed [13] = test: Test A preemergence; format: in vivo, Ambrosia elatior; details: for Ragweed plant response rating (0 to 100 scale): 125 g ai/ha
Outline: as §1

[14] = 31 g ai/ha, 0 to 100 scale where 0 is no effect and 100 is complete control, visual, approximately 10 days
[15] = 125 g ai/ha, 0 to 100 scale where 0 is no effect and 100 is complete control
[16] = 31 g ai/ha, 0 to 100 scale, 0 no effect, 100 complete control
[17] = 0 to 100 scale where 0 is no effect and 100 is complete control
[18] = 500 g ai/ha, 0 to 100 scale where 0 is no effect and 100 is complete control

COc1cccc(Oc2ncc(Cl)cn2)c1-n1cc(Cl)cn1 [Compound 169]
Plant response rating, Foxtail, Giant (giant foxtail [1]; [14]): 30
Plant response rating, Foxtail, Giant (giant foxtail [1]; [15]): 80
Plant response rating, Pigweed (pigweed [2]; [14]): 0
Pigweed plant response rating (0 to 100 scale) (pigweed [2]): 80
Plant response rating, Ryegrass, Italian (Italian ryegrass [3]; [16]): 0
Ryegrass, Italian plant response rating (Italian ryegrass [3]; [17]): 0
Plant response rating, Barnyardgrass (barnyardgrass [4]; [16]): 0
Barnyardgrass plant response rating (barnyardgrass [4]; [17]): 20
Plant response rating, Barnyardgrass (barnyardgrass [5]): 25
Plant response rating, Kochia (kochia [6]; [16]): 0
Kochia plant response rating (kochia [6]; [17]): 10
Plant response rating, Wheat (wheat; [16]): 0
Wheat plant response rating (wheat; [17]): 0
Plant response rating, Foxtail, Giant (giant foxtail [7]; [16]): 0
Foxtail, Giant plant response rating (giant foxtail [7]; [17]): 40
Plant response rating, Sedge, Umbrella (sedge, umbrella): 75
Plant response rating, Rice (rice): 15
Plant response rating, Kochia (kochia [8]; [14]): 0
Kochia plant response rating (0 to 100 scale) (kochia [8]): 0
Plant response rating, Galium (galium; [16]): 10
Galium plant response rating (galium; [17]): 40
Plant response rating, Corn (corn; [16]): 0
Corn plant response rating (corn; [17]): 0
Plant response rating, Blackgrass (blackgrass; [16]): 0
Blackgrass plant response rating (blackgrass; [17]): 30
Plant response rating, Ducksalad (Heteranthera limosa): 65
Plant response rating, Barnyardgrass (barnyardgrass [9]; [14]): 10
Plant response rating, Barnyardgrass (barnyardgrass [9]; [15]): 50
Plant response rating, Ragweed (ragweed [10]; [16]): 10
Ragweed plant response rating (ragweed [10]; [17]): 60
Plant response rating, Pigweed (pigweed [11]; [16]): 10
Pigweed plant response rating (pigweed [11]; [17]): 20
Plant response rating, Ryegrass, Italian (Italian ryegrass [12]; [14]): 0
Ryegrass, Italian plant response rating (0 to 100 scale) (Italian ryegrass [12]): 0
Plant response rating, Ragweed (ragweed [13]; [14]): 0
Ragweed plant response rating (0 to 100 scale) (ragweed [13]): 0

COc1ccc(C#N)c(-n2cc(Br)cn2)c1Oc1ncc(Cl)cn1 [Compound 212]
Foxtail, Giant plant response rating (0 to 100 scale) (giant foxtail [1]; 125 g ai/ha): 0
Foxtail, Giant plant response rating (giant foxtail [1]; [18]): 50
Pigweed plant response rating (0 to 100 scale) (pigweed [2]): 70
Pigweed plant response rating (pigweed [2]; [18]): 90
Ryegrass, Italian plant response rating (Italian ryegrass [3]; [17]): 20
Plant response rating, Ryegrass, Italian (Italian ryegrass [3]; [18]): 30
Barnyardgrass plant response rating (barnyardgrass [4]; [17]): 0
Plant response rating, Barnyardgrass (barnyardgrass [4]; [18]): 0
Plant response rating, Barnyardgrass (barnyardgrass [5]): 0
Kochia plant response rating (kochia [6]; [17]): 0
Plant response rating, Kochia (kochia [6]; [18]): 10
Wheat plant response rating (wheat; [17]): 0
Plant response rating, Wheat (wheat; [18]): 30
Foxtail, Giant plant response rating (giant foxtail [7]; [17]): 0
Plant response rating, Foxtail, Giant (giant foxtail [7]; [18]): 50
Plant response rating, Sedge, Umbrella (sedge, umbrella): 0
Plant response rating, Rice (rice): 0
Kochia plant response rating (0 to 100 scale) (kochia [8]): 0
Kochia plant response rating (kochia [8]; [18]): 40
Galium plant response rating (galium; [17]): 10
Plant response rating, Galium (galium; [18]): 30
Corn plant response rating (corn; [17]): 0
Plant response rating, Corn (corn; [18]): 0
Blackgrass plant response rating (blackgrass; [17]): 10
Plant response rating, Blackgrass (blackgrass; [18]): 50
Plant response rating, Ducksalad (Heteranthera limosa): 0
Barnyardgrass plant response rating (0 to 100 scale, 0 is no effect, 100 is complete control) (barnyardgrass [9]; 125 g ai/ha): 0
Barnyardgrass plant response rating (barnyardgrass [9]; [18]): 20
Ragweed plant response rating (ragweed [10]; [17]): 0
Plant response rating, Ragweed (ragweed [10]; [18]): 10
Pigweed plant response rating (pigweed [11]; [17]): 20
Plant response rating, Pigweed (pigweed [11]; [18]): 30
Ryegrass, Italian plant response rating (0 to 100 scale) (Italian ryegrass [12]): 0
Ryegrass, Italian plant response rating (Italian ryegrass [12]; [18]): 20
Ragweed plant response rating (0 to 100 scale) (ragweed [13]): 0
Ragweed plant response rating (ragweed [13]; [18]): 0
